Test results from patent publication US7351728B2, “Oxazolyl-aryloxyacetic acid derivatives and their use as PPAR agonists” (Eli Lilly and Company, priority 2003, dated 2008).

Each compound was assayed on db/db mice (assay: Evaluation of glucose levels in db/db mice). Conditions: Mus musculus, 168 h; 30 mg/kg daily oral gavage 7 days, male db/db mice; 100% = lean values; read-out: Glucose Normalization %.
Format: in vivo
Description: Five week old male diabetic (db/db) mice [C57BlKs/j-m +/+ Lepr(db), Jackson Laboratory, Bar Harbor, Me.] or lean littermates (db+) were housed 6 per cage (10″×20″×8″ with aspen chip bedding) with food (Purina 5015) and water available at all times. After an acclimation period of 2 weeks, animals were individually identified by ear notches, weighed, and bled via the tail vein for determination of initial glucose levels. Blood was collected (100 μl) from unfasted animals by wrapping each mouse in a towel, cutting the tip of the tail with a scalpel, and milking blood from the tail into a heparinized capillary tube (Fisher) balanced on the edge of the bench. Sample was discharged into a heparinized microtainer with gel separator (VWR) and retained on ice. Plasma was obtained after centrifugation at 4° C. and glucose measured immediately. Remaining plasma was frozen until the completion of the experiment, when glucose and triglycerides were assayed in all samples. Animals were grouped based on initial glucose levels and body weights. Beginning the following morning, mice were dosed daily by oral gavage for 7 days using a 20 gauge, 1½″ curved disposable feeding needle. Treatments were test compounds (30 mg/kg), a positive control agent (30 mg/kg) or vehicle [1% carboxymethylcellulose (w/v)/0.25% Tween80 (w/v); 0.3 ml/mouse]. On day 7, mice were weighed and bled (tail vein) 3 hours after dosing. Twenty-four hours after the 7th dose (i.e., day 8), animals were bled again (tail vein). Samples obtained from conscious animals on days 0, 7 and 8 were assayed for glucose. After the 24 hour bleed, animals were weighed and dosed for the final time. Three hours after dosing on day 8, animals were anesthetized by inhalation of isoflurane and blood obtained via cardiac puncture (0.5-0.7 ml). Whole blood was transferred to serum separator tubes, chilled on ice and permitted to clot. Serum was obtained after centrifugation at 4° C. and frozen until analysis for compound levels. After sacrifice by cervical dislocation, the liver, heart and epididymal fat pads were excised and weighed.
The animals dosed with vehicle had average triglycerides values of 170-230 mg/dl, which were reduced by the positive PPARγ control (70-120 mg/dl with a mean reduction of 50%). Male db/db mice were hyperglycemic (average glucose of 680-730 mg/dl on the 7th day of treatment), while lean animals had average glucose levels between 190-230 mg/dl.
Glucose was measured colorimetrically using commercially purchased reagents (Sigma #315-500). According to the manufacturers, the procedures were modified from published work (McGowan, M. W., Artiss, J. D., Strandbergh, D. R. & Zak, B. Clin Chem, 20:470-5 (1974) and Keston, A. Specific colorimetric enzymatic analytical reagents for glucose. Abstract of papers 129th Meeting ACS, 31C (1956).); and depend on the release of a mole of hydrogen peroxide for each mole of analyte, coupled with a color reaction first described by Trinder (Trinder, P. Determination of glucose in blood using glucose oxidase with an alternative oxygen acceptor. Ann Clin Biochem, 6:24 (1969)). The absorbance of the dye produced is linearly related to the analyte in the sample. The assays were further modified in our laboratory for use in a 96 well format. Standards (Sigma #339-11, Sigma #16-11, and Sigma #CC0534 for glucose triglycerides and total cholesterol, respectively), quality control plasma (Sigma # A2034), and samples (2 or 5 μl/well) were measured in duplicate using 200 μl of reagent. An additional aliquot of sample, pipetted to a third well and diluted in 200 μl water, provided a blank for each specimen. Plates were incubated at room temperature (18, 15, and 10 minutes for glucose, triglycerides and total cholesterol, respectively) on a plate shaker (DPC Micormix 5) and absorbance read at 500 nm (glucose and total cholesterol) or 540 nm (triglycerides) on a plate reader (Wallac Victor 1420). […]

Going from `Cc1oc(-c2ccccc2)nc1CCOc1ccc(OC(C)(C)C(=O)O)cc1` [Example 1, 2-Methyl-2-{4-[2-(5-methyl-2-phenyloxazol-4-yl)ethoxy]phenoxy}propionic acid] to `Cc1oc(-c2cccc(Br)c2)nc1CCOc1ccc(OC(C)(C)C(=O)O)cc1` [Example 9A, 2-(4-{2-[2-(3-Bromophenyl)-5-methyloxazol-4-yl]ethoxy}phenoxy)-2-methylpropionic acid], the inhibition in vivo at 30 mg/kg rises from 38% to 86%.

Going from `CCc1cccc(-c2nc(CCOc3ccc(OC(C)(C)C(=O)O)cc3)c(C)o2)c1` [Example 12, 2-(4-{2-[2-(3-Ethylphenyl)-5-methyloxazol-4-yl]ethoxy}phenoxy)-2-methylpropionic acid] to `CCc1ccc(-c2nc(CCOc3ccc(OC(C)(C)C(=O)O)cc3)c(C)o2)cc1` [Example 13, 2-(4-{2-[2-(4-Ethylphenyl)-5-methyloxazol-4-yl]ethoxy}phenoxy)-2-methylpropionic acid], the inhibition in vivo at 30 mg/kg falls from 101% to 65%.

First: Cc1oc(-c2cccc(CCc3ccccc3)c2)nc1CCOc1ccc(OC(C)(C)C(=O)O)cc1 [Example 12A, 2-Methyl-2-(4-{2-[5-methyl-2-(3-phenethylphenyl)oxazol-4-yl]ethoxy}phenoxy)-propionic acid]
Second: Cc1oc(-c2ccccc2)nc1CCOc1ccc(OC(C)(C)C(=O)O)c(CCc2ccccc2)c1 [Example 30J, 2-Methyl-2-{4-[2-(5-methyl-2-phenyloxazol-4-yl)ethoxy]-2-phenethylphenoxy}propionic acid]
The inhibition in vivo at 30 mg/kg of the first is lower: 51% for the first, 58% for the second.

Compared with `Cc1oc(-c2ccc(OC3CCCCC3)cc2)nc1CCOc1ccc(OC(C)(C)C(=O)O)cc1` [Example 21, 2-(4-{2-[2-(4-Cyclohexyloxy-phenyl)-5-methyl-oxazol-4-yl]-ethoxy}-phenoxy)-2-methyl-propionic acid], `Cc1cc(OCCc2nc(-c3ccccc3)oc2C)ccc1OC(C)(C)C(=O)O` [Example 24, 2-Methyl-2-{2-methyl-4-[2-(5-methyl-2-phenyloxazol-4-yl)ethoxy]phenoxy}propionic acid] is higher in inhibition in vivo at 30 mg/kg: 23% for the first, 72% for the second.

First: CCCc1cc(OCCc2nc(-c3ccccc3)oc2C)ccc1OCC(=O)O [Example 26, {4-[2-(5-methyl-2-phenyl-oxazol-4-yl)ethoxy]-2-propylphenoxy}acetic acid]
Second: CCCc1cc(OCCc2nc(-c3ccccc3)oc2C)ccc1OC(C)(C)C(=O)O [Example 26A, 2-Methyl-2-{4-[2-(5-methyl-2-phenyloxazol-4-yl)ethoxy]-2-propylphenoxy}propionic acid]
The inhibition in vivo at 30 mg/kg of the first is lower: 42% for the first, 77% for the second.

Compared with `CCCc1cc(OC(C)(C)C(=O)O)ccc1OCCc1nc(-c2ccccc2)oc1C` [Example 27A, 2-Methyl-2-{4-[2-(5-methyl-2-phenyloxazol-4-yl)ethoxy]-3-propylphenoxy}propionic acid], `CCCCc1cc(OC(C)(C)C(=O)O)ccc1OCCc1nc(-c2ccccc2)oc1C` [Example 31F, 2-{3-Butyl-4-[2-(5-methyl-2-phenyloxazol-4-yl)ethoxy]phenoxy}-2-methylpropionic acid] is higher in inhibition in vivo at 30 mg/kg: 62% for the first, 77% for the second.

Going from `CCc1cc(OCCc2nc(-c3ccccc3)oc2C)ccc1OC(C)(C)C(=O)O` [Example 30A, 2-{2-Ethyl-4-[2-(5-methyl-2-phenyloxazol-4-yl)ethoxy]phenoxy}2-methylpropionic acid] to `Cc1oc(-c2ccccc2)nc1CCOc1ccc(OC(C)(C)C(=O)O)c(CC(C)C)c1` [Example 30C, 2-{2-Isobutyl-4-[2-(5-methyl-2-phenyloxazol-4-yl)ethoxy]phenoxy}-2-methylpropionic acid], the inhibition in vivo at 30 mg/kg falls from 76% to 48%.

First: Cc1oc(-c2ccccc2)nc1CCOc1ccc(OC(C)(C)C(=O)O)c(Cc2ccccc2)c1 [Example 32, 2-{2-Benzyl-4-[2-(5-methyl-2-phenyloxazol-4-yl)ethoxy]phenoxy}-2-methylpropionic acid]
Second: Cc1oc(-c2ccccc2)nc1CCOc1ccc(OC(C)(C)C(=O)O)c2ccccc12 [Example 37, 2-Methyl-2-{4-[2-(5-methyl-2-phenyl-oxazol-4-yl)-ethoxy]-naphthalen-1-yloxy}-propionic acid]
The inhibition in vivo at 30 mg/kg of the first is lower: 47% for the first, 56% for the second.

For `Cc1oc(-c2ccccc2)nc1CCOc1ccc(OC(C)(C)C(=O)O)c2c1CCCC2` [Example 38, 2-Methyl-2-{4-[2-(5-methyl-2-phenyl-oxazol-4-yl)-ethoxy]-5,6,7,8-tetrahydro-naphthalen-1-yloxy}-propionic acid], the inhibition in vivo at 30 mg/kg was 38%.
